Tests used:
EDRF = assay: Restoration of depressed response to catecholamines / inhibition of vascular hyporeactivity (general statement)
[1] = system: vascular reactivity (methoxamine); assay: Vascular reactivity to methoxamine in pithed rats perfused with endotoxin (EDTX); format: in vivo, Male Sprague Dawley rats; settings: for inhibition of vascular hyporeactivity: pithed rats, endotoxin 300 μg/kg/h, 60 min
Method: Male Sprague Dawley rats (280-320 g) were pithed and perfused continuously with endotoxin (EDTX, Escherichia Coli lipopolysaccharide OIII: B4; 300 μg/kg/h) for 60 min.

[2] = Blood pressure in pithed rats perfused with endotoxin; format: in vivo, Male Sprague Dawley rats; settings: endotoxin 300 μg/kg/h, 60 min
Method: Male Sprague Dawley rats (280-320 g) were pithed and perfused continuously with endotoxin (EDTX, Escherichia Coli lipopolysaccharide OIII: B4; 300 μg/kg/h) for 60 min. […] A 60 min perfusion of endotoxin lipopolysaccharide (300 μg/kg/h) to pithed rats led to hypotension and impaired the vascular reactivity to pressor agents as observed in septic and endotoxinic shock in human. […] Their effects on blood pressure are however less marked. Association of blockers of cyclooxygenase (aspirin, indomethacin for instance . . . ) and blockers of EDRF results on a highly significative synergistic protective effect in both vascular hyperactivity and decrease of blood pressure induced by shock.

thoracic aorta rings = assay: Contractile responses of thoracic aorta rings from endotoxin-treated rats (PE-induced contraction, loss of tonicity), organ bath; design: species or system Sprague Dawley rats; settings: rings from endotoxin-treated animals; compounds of the invention at 10, 30 or 100 μM, with or without endothelium
Method: Sprague Dawley rats (220-330 g) received a 10 mg/kg ip injection of Escherichia Coli endotoxin (0114B4 Sigma). After 3 hours, rats were sacrificed by cervical dislocation and the thoracic aorta removed and cleaned of the surrounding tissue. Rings 2 mm wide were suspended under a tension of 2 g at 37° C. in organ bath containing 10 ml of Krebs Henseleit physiological solution and gassed with 95% O2 /5% CO2. Contractile responses were measured using force displacement transducers (Auguet M., Delaflotte S., P. E. Chabrier, P. Braquet Comparative effects of endotelin and phorbol 12-13 dibutyrate in rat aorta. Life Sci. 45, 21, 2051-2059, 1989).
In some experiments, the endothelium was gently disrupted (-E). Phenylephrine (PE) induced contraction was stable over the time in control rings of animals receiving saline solution (0.9% NaCl) with (E+) or without (E-) endothelium. The arginine derivative (10, 30 or 100 μM) had no significant effect per se.
This phenomenon was accentuated with intact endothelium (E+).
In some experiments, the compounds of the invention were introduced in the bath 105 minutes after PE when the tissue had completely its tonicity. Under these conditions, the compounds of the invention, alone, were able to curatively and totally restore the contraction and therefore contribute extensively to vascular hyporesponsiveness to vasoconstrictor agents in shock. […]

Structure (SMILES)	restoration of depressed response to catecholamines and inhibition of vascular hyporeactivity (EDRF)	inhibition of vascular hyporeactivity [1]	effects on blood pressure [2]	further results
CNC(=N)NCCC[C@@H](N)C(=O)O [(D) N-methyl arginine, reference compound]				activity in the field of the present invention (EDRF): deprived of any activity
COC(=O)[C@@H](N)CCCNC(=N)N[N+](=O)[O-] [L-NAME, L-nitroarginine methyl ester]	able to restore depressed response to catecholamines and to effectively inhibit vascular hyporeactivity	inhibited in a dose dependent manner	less marked	
CC(=N)NCCC[C@H](N)C(=O)O [L-NIO, L-iminoethylornithine]	able to restore depressed response to catecholamines and to effectively inhibit vascular hyporeactivity	inhibited in a dose dependent manner	less marked	
CNC(=N)NCCC[C@H](N)C(=O)O [L-NMMA, L-N-monomethyl arginine]	able to restore depressed response to catecholamines and to effectively inhibit vascular hyporeactivity	inhibited in a dose dependent manner	less marked	
N=C(N)NCCC[C@H](N)C(=O)O [L-arginine]				effect on loss of tonicity in endotoxin treated preparation (thoracic aorta rings): enhanced the loss of tonicity
COc1ccc(OC)c(C(O)C(C)N)c1 (stereo not drawn) [methoxamine, reference compound]				ED50 ([1]; Rattus norvegicus, control rats, cumulative dose-response): 0.079 ± 0.009 mg/kg

Reference: patent publication US5081148A, “Blocking agents of EDRF effect or formation for the treatment of shock” (Societe de Conseils de Recherches et d'Applications …, priority 1989, dated 1992)
